Reference: US9181290B2, “Inhibition of biofilm formation by 1,2,3,4,6-penta-O-galloyl-D-glucopyranose” (CHANG GUNG UNIVERSITY, priority 2011, dated 2015)
Like-named read-outs stand apart in the source and are kept apart here.

Assays:
[1] = tested on: S. aureus SA113 (ATCC 35556); assay: Bacterial growth (A578) and biofilm formation (crystal violet, A595) in 96-well polystyrene microtiter plates; format: cell-based, Staphylococcus aureus; details: for IC50: Staphylococcus aureus, read-out: IB50 (concentration that inhibited 50% biofilm formation); for Cell Growth (%): growth compared to untreated control at the concentration of IB50
Protocol: An overnight bacterial culture was 200-fold diluted with TSBg, and a 200 μL aliquot of the diluted culture was seeded into each well of 96-well polystyrene microtiter plates and incubated at 37° C. for a designated period of time. Cell growth was determined by measuring the absorbance at 578 nm (A578) with a microtiter plate reader (SpectraMax 340, Molecular Devices). After washing with PBS twice to remove suspended cells, the wells were stained with 0.1% (w/v) crystal violet in 10% ethanol and then treated with 30% acetic acid in dH2O, followed by detecting the absorbance at 595 nm (A595) with the microtiter plate reader to quantify the amount of biofilm formed on polystyrene surface.
An overnight culture of S. aureus SA113 was 200-fold diluted with TSBg, and a 200 μL aliquot of the diluted culture was seeded into each well of 96-well microtiter plates. Compounds purified from medicinal plants were added into each well at a designated concentration up to […]. At 6 hours after seeding, the amounts of biofilms formed in the wells were determined by crystal violet staining as described above. Cells treated with either distilled water or DMSO were used as a control. The amount of biofilm formation by the control group was set as 100%. Each experiment was repeated at least three times, with n=6 for each sample tested. The concentrations of compounds that inhibited 50% biofilm formation (IB50) were calculated based on logistic regression analysis results. Besides, the biofilm formation inhibition rate of a PGG-treated group was calculated using the following equation (1). Biofilm formation inhibition rate(%)=[(A−B)/A]×100 (1) wherein:
In the wells of 96-well microtiter plates, S. aureus SA113 cells were cultured in TSBg broth in the presence of either β-PGG or α-PGG at different amounts (0, 1 and 10 μM). After incubation at 37° C. for 6 hrs, the cell density was determined by measuring the absorbance at 578 nm (A578), and the amounts of biofilm were quantified by crystal violet staining, with the amount of biofilm formed by untreated bacterial cells being set as 100%. Each experiment was repeated three times, with n=6 for each sample tested.
To determine the effect(s) of (β-PGG upon bacterial growth and biofilm formation, β-PGG in various amounts (final concentration: 0, 1.56, 3.13, 6.25, 12.5, 25 and 50 μM) was added into the culture of S. aureus SA113 during seeding into the wells of polystyrene microtiter plates, followed by incubation at 37° C. for 6 hrs or 24 hrs. Cell growth was determined by measuring the absorbance at 578 nm, and the amount of biofilm formed on polystyrene surface was determined at 595 nm after crystal violet staining. In addition to polystyrene surface, the effect of β-PGG in inhibiting biofilm formation on polycarbonate surface was also examined according to the procedures as described in the preceding section entitled “Materials and methods.”

[2] = tested on: S. aureus; assay: Biofilm formation after treatment with other strong antioxidants (data not shown); format: cell-based, Staphylococcus aureus
[3] = ATCC35556, 6 hours, logistic regression

Row | IC50 [1, 3] [µM] | Compound | Cell Growth (%) [1] [%] | influence on biofilm formation [2] | also measured
1 | 6380 | CC(=O)N[C@@H](CS)C(=O)O [NAC, N-acetylcysteine, reference compound] | 88 | – | –
2 | – | O=C1O[C@H]([C@@H](O)CO)C(O)=C1O [ascorbic acid] | – | does not influence biofilm formation | –
3 | – | NC(=O)CI [IDA, Iodoacetamide, reference compound] | 50 | – | IC50 ([1]; ATCC35556, 6 h): 120 µM
4 | – | (−)-epigallocatechin gallate | – | does not influence biofilm formation | –
5 | – | O=C(OC[C@H]1O[C@H](OC(=O)c2cc(O)c(O)c(O)c2)[C@H](OC(=O)c2cc(O)c(O)c(O)c2)[C@@H](OC(=O)c2cc(O)c(O)c(O)c2)[C@@H]1OC(=O)c1cc(O)c(O)c(O)c1)c1cc(O)c(O)c(O)c1 [α-PGG, 1,2,3,4,6-Penta-O-galloyl-α-D-glucopyranose] | – | – | viability of S. aureus SA113 cells (A578) ([1]; 1 μM and 10 μM, 6 hour incubation (anomer comparison)): did not affect the viability; reduction of biofilm formation ([1]; 1 μM, 6 hour incubation (anomer comparison)): 13%; reduction of biofilm formation ([1]; 10 μM, 6 hour incubation (anomer comparison)): 65%
6 | 41.9 | O=C1C=CC(=O)N1c1ccccc1 [NPM, N-phenyl maleimide, reference compound] | 66 | – | –
